Measured values: patent publication US5814655A, “Non-steroidal ophthalmic mixtures” (InSite Vision Incorporated, priority 1996, dated 1998)

Assay: Percent of drug in suspension as a function of concentration in the formulation and pH
Type: physicochemical
[1] = pH 4.0, concentration in the formulation 1.0
[2] = pH 4.0, concentration in the formulation .001
[3] = pH 4.0, concentration in the formulation .01
[4] = pH 4.0, concentration in the formulation .1
[5] = pH 4.0, concentration in the formulation 5.0
[6] = pH 5.0, concentration in the formulation 1.0
[7] = pH 5.0, concentration in the formulation 5.0
[8] = pH 5.0, concentration in the formulation .001
[9] = pH 5.0, concentration in the formulation .01
[10] = pH 5.0, concentration in the formulation .1
[11] = pH 6.0, concentration in the formulation 1.0
[12] = pH 6.0, concentration in the formulation 5.0
[13] = pH 6.0, concentration in the formulation .001
[14] = pH 6.0, concentration in the formulation .01
[15] = pH 6.0, concentration in the formulation .1
[16] = pH 7.0, concentration in the formulation 1.0
[17] = pH 7.0, concentration in the formulation 5.0
[18] = pH 7.0, concentration in the formulation .001
[19] = pH 7.0, concentration in the formulation .01
[20] = pH 7.0, concentration in the formulation .1

O=C(O)Cc1ccccc1Nc1c(Cl)cccc1Cl [Diclofenac Sodium, sodium ortho-(2,6-dichlorophenyl)aminophenylacetate acid]
diclofenac in suspension (in words) (below a pH of about 6.8, formulation containing 1% diclofenac sodium): virtually all
Percent Diclofenac Sodium in Suspension (pH 3.7, concentration in the formulation 1.0): 100%
Percent Diclofenac Sodium in Suspension (pH 3.7, concentration in the formulation .001): 100%
Percent Diclofenac Sodium in Suspension (pH 3.7, concentration in the formulation .01): 100%
Percent Diclofenac Sodium in Suspension (pH 3.7, concentration in the formulation .1): 100%
Percent Diclofenac Sodium in Suspension [1]: 99%
Percent Diclofenac Sodium in Suspension [2]: 99%
Percent Diclofenac Sodium in Suspension [3]: 99%
Percent Diclofenac Sodium in Suspension [4]: 99%
Percent Diclofenac Sodium in Suspension (pH 4.6, concentration in the formulation 1.0): 99%
Percent Diclofenac Sodium in Suspension (pH 4.6, concentration in the formulation .001): 90%
Percent Diclofenac Sodium in Suspension (pH 4.6, concentration in the formulation .01): 99%
Percent Diclofenac Sodium in Suspension (pH 4.6, concentration in the formulation .1): 99%
Percent Diclofenac Sodium in Suspension (pH 5.2, concentration in the formulation 1.0): 99%
Percent Diclofenac Sodium in Suspension (pH 5.2, concentration in the formulation .001): 20%
Percent Diclofenac Sodium in Suspension (pH 5.2, concentration in the formulation .01): 92%
Percent Diclofenac Sodium in Suspension (pH 5.2, concentration in the formulation .1): 99%
Percent Diclofenac Sodium in Suspension (pH 5.9, concentration in the formulation 1.0): 99%
Percent Diclofenac Sodium in Suspension (pH 5.9, concentration in the formulation .001): 0%
Percent Diclofenac Sodium in Suspension (pH 5.9, concentration in the formulation .01): 50%
Percent Diclofenac Sodium in Suspension (pH 5.9, concentration in the formulation .1): 95%
Percent Diclofenac Sodium in Suspension (pH 6.3, concentration in the formulation 1.0): 98%
Percent Diclofenac Sodium in Suspension (pH 6.3, concentration in the formulation .001): 0%
Percent Diclofenac Sodium in Suspension (pH 6.3, concentration in the formulation .01): 0%
Percent Diclofenac Sodium in Suspension (pH 6.3, concentration in the formulation .1): 76%
Percent Diclofenac Sodium in Suspension (pH 6.5, concentration in the formulation 1.0): 93%
Percent Diclofenac Sodium in Suspension (pH 6.5, concentration in the formulation .001): 0%
Percent Diclofenac Sodium in Suspension (pH 6.5, concentration in the formulation .01): 0%
Percent Diclofenac Sodium in Suspension (pH 6.5, concentration in the formulation .1): 35%
Percent Diclofenac Sodium in Suspension (pH 7.3, concentration in the formulation 1.0): 64%
Percent Diclofenac Sodium in Suspension (pH 7.3, concentration in the formulation .001): 0%
Percent Diclofenac Sodium in Suspension (pH 7.3, concentration in the formulation .01): 0%
Percent Diclofenac Sodium in Suspension (pH 7.3, concentration in the formulation .1): 0%

CC(C(=O)O)c1ccc(-c2ccccc2)c(F)c1 (stereo not shown) [Flurbiprofen]
Percent Flurbiprofen in Suspension [1]: 99%
Percent Flurbiprofen in Suspension [5]: 99%
Percent Flurbiprofen in Suspension [2]: 20%
Percent Flurbiprofen in Suspension [3]: 92%
Percent Flurbiprofen in Suspension [4]: 99%
Percent Flurbiprofen in Suspension [6]: 99%
Percent Flurbiprofen in Suspension [7]: 99%
Percent Flurbiprofen in Suspension [8]: 0%
Percent Flurbiprofen in Suspension [9]: 33%
Percent Flurbiprofen in Suspension [10]: 93%
Percent Flurbiprofen in Suspension [11]: 80%
Percent Flurbiprofen in Suspension [12]: 98%
Percent Flurbiprofen in Suspension [13]: 0%
Percent Flurbiprofen in Suspension [14]: 0%
Percent Flurbiprofen in Suspension [15]: 0%
Percent Flurbiprofen in Suspension [16]: 24%
Percent Flurbiprofen in Suspension [17]: 92%
Percent Flurbiprofen in Suspension [18]: 0%
Percent Flurbiprofen in Suspension [19]: 0%
Percent Flurbiprofen in Suspension [20]: 0%

CC(C(=O)O)c1ccc(C(=O)c2cccs2)cc1 (stereo not shown) [Suprofen]
Percent Suprofen in Suspension [1]: 98%
Percent Suprofen in Suspension [5]: 99%
Percent Suprofen in Suspension [2]: 0%
Percent Suprofen in Suspension [3]: 0%
Percent Suprofen in Suspension [4]: 77%
Percent Suprofen in Suspension [6]: 95%
Percent Suprofen in Suspension [7]: 99%
Percent Suprofen in Suspension [8]: 0%
Percent Suprofen in Suspension [9]: 0%
Percent Suprofen in Suspension [10]: 45%
Percent Suprofen in Suspension [11]: 54%
Percent Suprofen in Suspension [12]: 95%
Percent Suprofen in Suspension [13]: 0%
Percent Suprofen in Suspension [14]: 0%
Percent Suprofen in Suspension [15]: 0%
Percent Suprofen in Suspension [16]: 0%
Percent Suprofen in Suspension [17]: 68%
Percent Suprofen in Suspension [18]: 0%
Percent Suprofen in Suspension [19]: 0%
Percent Suprofen in Suspension [20]: 0%
